Test results as given in patent publication US20240336595A1, “BIFUNCTIONAL COMPOUNDS FOR DEGRADING BTK WITH DIMINISHED IMID ACTIVITY” (NURIX THERAPEUTICS, INC., priority 2021, published 2024).
Entries after “also recorded” stand apart in the source; their conditions may differ.

Experiments:
Aiolos = assay: IMiD activity: Aiolos degradation in PBMCs by flow cytometry; assay type: cell-based; conditions: human PBMCs, 24 hours
Procedure: In addition, Compounds 1-24 were assayed for IMiD activity. Frozen human peripheral blood mononuclear cells (PBMCs) were thawed and treated with DMSO or compound for 24 hours and then fixed and permeabilized using a Foxp3/Transcription Factor Fixation/Permeabilization Kit (eBioscience, 00-5523). Cells were stained with fluorophore-conjugated antibodies against CD20 (Biolegend 302330), CD3 (BD Pharmingen 552127), and Aiolos (Biolegend 371106). An additional set of DMSO-treated PBMCs was stained for CD20, CD3, and an AlexaFluor 647-conjugated mouse IgG1 isotype control antibody (Biolegend 400136). Stained cells were run on an Attune NxT Acoustic Focusing Flow Cytometer (Thermo-Fisher A29004), and data was analyzed using FlowJo (v10.5.3) and GraphPad Prism (v7.00) software. Single lymphocytes were gated for B cells (CD20+CD3-) and T cells (CD3+CD20-), and the geometric mean fluorescence intensity (MFI) of Aiolos was calculated for each population. The MFI of the isotype control was calculated for each population and used to quantify background staining. Percent Aiolos degradation was calculated for each compound-treated sample using the following equation: […]
DC50 is the compound concentration degrading 50% of Aiolos. Dmax is the maximum percent Aiolos degradation in the assay.

[1] = system: collagen-induced arthritis (CIA) model; assay: Collagen-induced arthritis (CIA) model; assay type: in vivo; conditions: mouse CIA, daily oral 30 mg/kg
Description: Immunization with Collagen Type II (CII) in an adjuvant induces polyarthritis in rodents. This model known as the collagen-induced arthritis (CIA) model, is widely used for studying arthritis and resemble many aspect of the human disease. High level of anti-collagen II correlates with disease severity. In FIG. 1 CIA was induced by immunization with type II collagen in complete Freund's adjuvant on Day 0. A second boost was given on Day 21. Treatment with vehicle or therapeutic agents was initiated on Day 18 and continued to day 35. At the end of the study on Day 36, serum was collected. […] Significance of clinical arthritis score (A) was determined from the area under the curve (AUC) of mean paw scores calculated for individual mice. (C) Serum levels of anti-type II collagen IgG. Statistical significance was determined between vehicle control and treated groups with one-way Kruskal-Wallis ANOVA and Dunn's multiple comparisons test.

B cells compartment = assay: Dosing effect on B cells compartment (B cells, plasma cells); assay type: in vivo, C57BL/6 mice; conditions: 30 mg/kg in water bottle
Procedure: A separate group of mice received vehicle formulation as control. Blood spleens and femurs for each treated mice were harvested at the end of the study. Peritoneal lavage was also performed with PBS to harvest peritoneal resident lymphocyte.
It is plausible that Compound 1 affects one or multiple proteins that are involved either in generation or the survival of plasma cells and that this effect is independent from its ability to degrade the BTK protein. Left, representative dot plots showing the gating strategy to identify plasma cells in bone marrow. Right histograms showing cumulative data from multiple treated animals.
An ordinary one-way ANOVA with Tukey's multiple comparisons test was performed, and all groups were compared to each other. * p<0.05, ** p<0.01,**** p<0.001. All comparisons without an asterisk were not significant.

intracranial TMD8 tumors = assay: Intracranial TMD8 tumor model, tumor burden; assay type: in vivo, female CB.17 SCID mice; conditions: 90 mg/kg orally every day for twelve days, vs vehicle
Description: TMD8 is a human activated B cell (ABC)-type diffuse large B cell lymphoma (DLBCL) cell line that is dependent on BTK signaling for survival (Davis, R. E., Ngo, V. N., Lenz, G., Tolar, P., Young, R. M., Romesser, P. B., Staudt, L. M. (2010). Chronic active B-cell-receptor signalling in diffuse large B-cell lymphoma. Nature, 463(7277), 88-92. doi: 10.1038/nature08638).
TMD8 cells were implanted into female CB.17 SCID mice by intracranial injection of 5E5 TMD8 cells. Treatment with compound 1 begun the following day. Mice were treated orally every day for twelve days with either vehicle or 90 mg/kg of Compound 1. Brains were then harvested, dissociated into single cell suspensions and BTK level in TMD8 cells was assessed by flow cytometry. TMD8 cells in dissociated brain tissue were identified by human-specific surface markers (CD20+HLA+) and total numbers of TMD8 cells per brain is reported in (A, tumor burden). Percent BTK remaining in TMD8 cells (B) was calculated according to the below formula: […]

BTK = BTK (Mus musculus, UniProt P35991); assay: BTK level in spleen B cells after NP-KLH immunization; assay type: in vivo, Mice; design: from tissue; host or cells: mouse spleen B cells (CD19+ TCRbeta-)
Sequence of BTK (P35991 whole entry): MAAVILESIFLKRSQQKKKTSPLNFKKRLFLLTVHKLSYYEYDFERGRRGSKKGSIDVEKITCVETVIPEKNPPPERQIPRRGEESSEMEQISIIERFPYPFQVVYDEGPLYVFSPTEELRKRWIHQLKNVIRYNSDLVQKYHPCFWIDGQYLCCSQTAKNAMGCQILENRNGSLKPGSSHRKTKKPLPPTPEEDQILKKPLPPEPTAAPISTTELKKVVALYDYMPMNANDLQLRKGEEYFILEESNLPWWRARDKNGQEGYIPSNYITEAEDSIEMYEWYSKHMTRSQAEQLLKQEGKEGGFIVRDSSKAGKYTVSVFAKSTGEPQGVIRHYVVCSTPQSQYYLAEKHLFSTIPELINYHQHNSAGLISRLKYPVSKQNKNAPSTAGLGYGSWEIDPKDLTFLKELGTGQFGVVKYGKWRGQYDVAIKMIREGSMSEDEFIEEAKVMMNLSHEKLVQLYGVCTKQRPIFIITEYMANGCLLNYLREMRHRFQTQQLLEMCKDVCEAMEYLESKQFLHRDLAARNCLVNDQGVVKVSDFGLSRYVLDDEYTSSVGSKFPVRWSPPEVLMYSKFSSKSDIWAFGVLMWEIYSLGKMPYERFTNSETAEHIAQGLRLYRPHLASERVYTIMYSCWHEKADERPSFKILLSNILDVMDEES
Procedure: Mice were immunized by intraperitoneal injection of 200 μL of immunogen containing 100 μg NP-32-KLH (Biosearch Technologies, Cat. N-5060-25,Lot. 156285-01) and 1% Alum (Alhydrogel, 2%, Invivogen Cat. Vac-alu-250, Batch 0001715532, Exp. July 2022), prepared in phosphate buffered saline. Group 1 mice were not immunized and used as control. Mice in Group 2 to 5 were dosed orally once a day from Day 1 to Day 7 with compounds or vehicle for six additional days and then sacrificed the following day. Splenocytes and bone marrow were harvested 24 hours following the final dosing of compound on Day 7. Spleens harvested at the end of the study were dissociated, and red blood cells were lysed with ammonium-chloride-potassium (ACK) lysis buffer. 1 million cells per tissue were stained for each flow cytometry panel.
Cells were permeabilized and stained for lineage markers and intracellular BTK. B cells were gated on CD19+ TCRbeta−, and T cells were gated on CD19− and TCRbeta+.

CN1CCN([C@@H]2CCCN(c3cnc(C(N)=O)c(Nc4ccc(C5CCN(CC6CCN(c7ccc(C(=O)N[C@H]8CCC(=O)NC8=O)nc7)CC6)CC5)cc4)n3)C2)C1=O [Compound 1]
DC50 (Aiolos; compound concentration degrading 50% of Aiolos): 0.631 µM | Dmax (Aiolos; maximum percent Aiolos degradation in the assay): 18.7% | body weight [1]: minimal effect on body weight; also recorded: minimal body weight loss | mean arthritis score ([1]; Day 18 to day 35): significant benefit; also recorded: lower mean arthritis score than ibrutinib; also recorded: lower mean arthritis score than standard of care agents | plasma cells number in bone marrow (B cells compartment): significantly reduce | B cells percentage (B cells compartment; blood, spleens, peritoneum and bone marrow): does not significantly affect | tumor burden (total TMD8 cells per brain) (intracranial TMD8 tumors): reduced tumor burden | tumor burden (total TMD8 cells per brain) (intracranial TMD8 tumors; listed as compound 1): significantly reduced TMD8 tumor cells | BTK degradation in spleens (BTK; NP-KLH immunized mice, oral once a day): robust BTK degradation | BTK levels (percent BTK remaining in B cells) (BTK; spleen, 24 hours after the final dose, normalized to naive group): 13.4 % of baseline
